{"source": "patent US9340532B2", "about": "“Methods and compositions for inhibiting CNKSR1” (PHUSIS THERAPEUTICS, INC., priority 2012, dated 2016)", "key": {"[1]": {"target": "T1, direct binding of CNKSR1 to mut-KRAS (Homo sapiens, UniProt Q969H4)", "T1 construct": "expressed in transfected cells", "T1 sequence (Q969H4 1-720)": "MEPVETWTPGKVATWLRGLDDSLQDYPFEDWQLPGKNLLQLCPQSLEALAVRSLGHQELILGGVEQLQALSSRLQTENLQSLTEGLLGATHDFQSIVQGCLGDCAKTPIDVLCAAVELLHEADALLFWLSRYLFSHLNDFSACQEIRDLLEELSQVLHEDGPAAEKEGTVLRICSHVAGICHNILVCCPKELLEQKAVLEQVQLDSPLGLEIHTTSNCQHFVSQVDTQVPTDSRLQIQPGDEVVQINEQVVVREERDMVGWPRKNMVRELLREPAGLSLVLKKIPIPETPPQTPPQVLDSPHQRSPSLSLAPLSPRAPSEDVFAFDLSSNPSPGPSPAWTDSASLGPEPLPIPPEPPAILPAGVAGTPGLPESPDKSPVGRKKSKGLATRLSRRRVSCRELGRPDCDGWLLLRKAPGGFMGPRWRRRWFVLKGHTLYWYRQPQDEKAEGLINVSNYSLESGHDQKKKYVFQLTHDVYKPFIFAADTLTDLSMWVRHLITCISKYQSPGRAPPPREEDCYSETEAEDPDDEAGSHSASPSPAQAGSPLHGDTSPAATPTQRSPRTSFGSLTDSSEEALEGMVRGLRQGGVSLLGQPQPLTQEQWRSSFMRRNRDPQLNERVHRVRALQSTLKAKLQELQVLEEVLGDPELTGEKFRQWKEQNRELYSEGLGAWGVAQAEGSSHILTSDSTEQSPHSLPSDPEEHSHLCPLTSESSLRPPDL", "test": "Fluorescence lifetime imaging microscopy (FLIM)", "assay_type": "cell-based", "settings": "FIG. 13, FLIM", "description": "FLIM experiments were carried out using a Leica TCP SP5 inverted advanced confocal microscope system with internal photomultiplier tube (PMT) detector for TCSPC (time-correlated single-photon counting). The sample was excited with a tunable femtosecond (fs) titanium-sapphire laser with repetition rate of 80 MHz and pulse width less then 80 fs (Spectral Physics, Mai Tai BB). The wavelength used for two-photon excitation was 930 nm and the fluorescence was detected through a 525±25 nm interference filter. Images were obtained with oil-immersion objective (numerical aperture NA=1.4), a line scan speed of 400 Hz, with image size of 512×512 pixels. For FLIM analysis the pixels were reduced to 256×256. FLIM data was collected using Becker & Hickl SPC830 data and image acquisition card for TCSPC."}, "[2]": {"target": "T2, CNK1 PH-domain (CNKSR1) (Homo sapiens, UniProt Q969H4)", "T2 construct": "The PH-domain His-fusion proteins (CNK1 and AKT1) were expressed and immobilized on a NTA chip; made in house", "T2 sequence (Q969H4 403-502 limits assumed)": "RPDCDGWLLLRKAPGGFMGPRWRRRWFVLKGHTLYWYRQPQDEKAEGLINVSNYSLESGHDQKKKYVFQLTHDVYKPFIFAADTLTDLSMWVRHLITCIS", "test": "SPR binding assay (Biacore T100), CNK1 PH-domain", "method_in_brief": "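His-tagged CNK1 PH-domain was captured on an NTA chip to ≤10,000 RU. Small-molecule analytes were injected at 50 μM to 0.010 μM at 30 μL/min, with 1-5% (v/v) DMSO in samples and running buffer. Binding was measured by surface plasmon resonance.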"}, "[3]": {"test": "Stability in biological media: human plasma", "assay_type": "in vitro ADME", "settings": "50 μg/ml, 37° C."}, "[4]": {"target": "T3, membrane colocalisation of CNKSR1 and mutant-KRas (Homo sapiens, UniProt Q969H4)", "T3 construct": "fluorescent protein (GFP or mRFP); expressed in transfected cells; host or cells: HEK293T", "T3 sequence (Q969H4 1-720)": "T1 sequence (Q969H4 1-720)", "test": "Confocal imaging of CNKSR1 / mutant KRas colocalisation", "assay_type": "cell-based", "settings": "FIG. 12", "description": "HEK293T cells were co-transfected with CNK and either wild type or G12D mutant KRAS. Twenty-four hours post-transfection, cells were seeded on glass coverslips and allowed to grow a further 24 h and then serum deprived overnight. Cells were fixed with 4% (w/v) paraformaldehyde pH 8.0 for 20 min at room temperature. Following 6-7 washes with PBS (pH 8.0) the coverslip was mounted onto a slide with mounting medium (0.1% p-phenylenediamine/75% glycerol in PBS at pH 7.5-8.0). Confocal laser scanning microscopy was performed with a Leica SP5 confocal microscope system with 63× oil-immersion objective (numerical aperture NA=1.4), a line scan speed of 600 Hz, with image size of 1024×1024 pixels. GFP was excited with an argon-visible light laser tuned to 488 nm, mRFP were excited with a […] tuned to 543 nm GFP and RFP fluorescence emissions were collected using a photomultiplier tube via 514/10 nm and 595/10 nm band selections respectively."}, "[5]": {"tested_on": "H1373 (KRAS mutant cell line)", "test": "Proliferation Assay H1373", "assay_type": "cell-based", "settings": "Homo sapiens, NCI-H1373, N = 2 experiments", "method_in_brief": "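Cells plated 2000 per well, allowed 24 h to attach, then exposed 72 h to agents (0-100 μM for isogenic lines; 0.01 to 50 μM for the RPMI 1640/10% FBS-cultured 30-line NSCLC panel). MTS read at 490 nm after 2 h, normalized to no-cell and no-drug controls; IC50 from curve fitting.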"}}, "data": [{"smiles": "CCOC(=O)Cc1nn(Cc2nc(-c3ccc(C)cc3)cs2)c(=O)c2ccccc12", "note": "[Compound 7]", "values": [{"measurement": "direct binding of CNKSR1 to mut-KRAS in cells", "setting": "[1]", "value": "inhibit"}, {"measurement": "Kd", "setting": "[2]; Table 6, read-out: CNKS KD", "value": 3.2, "unit": "µM"}, {"measurement": "Surface Plasmon Resonance CNKSR1 binding (RU max)", "setting": "[2]; date 11 26 13", "value": 5.019, "unit": "RU * 100/Da"}, {"measurement": "Surface Plasmon Resonance CNKSR1 stability (RU max post-injection)", "setting": "[2]; date 11 26 13", "value": 0.761, "unit": "RU * 100/Da"}, {"measurement": "Surface Plasmon Resonance CNKSR1 binding (RU max)", "setting": "[2]; date 12 09 13", "value": 0.205, "unit": "RU * 100/Da"}, {"measurement": "Surface Plasmon Resonance CNKSR1 stability (RU max post-injection)", "setting": "[2]; date 12 09 13", "value": 0.798, "unit": "RU * 100/Da"}, {"measurement": "Half life", "setting": "[3]", "value": "stable"}, {"measurement": "Half life", "setting": "[3]; listed as #7", "value": "completely stable"}, {"measurement": "membrane colocalisation of CNKSR1 and mutant-KRas at the plasma membrane", "setting": "[4]", "value": "blocking"}, {"measurement": "total mutant KRas protein in the cell", "setting": "[4]", "value": "lower"}, {"measurement": "IC50", "setting": "[5]", "value": "> 100", "unit": "µM"}]}]}
